Results reported in patent US12398110B2, “Second generation inhibitors of mitochondrial permeability transition pore with improved plasma stability” (Oregon Health & Science University, priority 2019, dated 2025).

How the values were obtained:
mtPTP = assay: Ca2+ overload induced mitochondrial swelling in isolated mouse liver mitochondria; format: biochemical; settings: isolated mouse liver mitochondria; average ± SEM, n = 3-41; read-out: Mitochondrial Swelling EC50
Method: We next sought to evaluate the effects of TR001-13 on mtPTP activity in vitro. This was performed on isolated mitochondria. In isolated mitochondria induction of mtPTP opening leads to mitochondrial swelling due to the oncotic pressure gradient created by matrix proteins >1.5 kDa that cannot diffuse through the open pore. In in vitro experiments, where isolated mitochondria are routinely suspended in sucrose-based isosmotic solutions, the change in mitochondrial size can be measured spectrometrically by detecting the decrease in light scattering at 540 nm.
Isolation of mitochondria. C57BL6/N mouse liver mitochondria were prepared from 2 to 6 month old male mice by standard differential centrifugation. Mice fed ad libitum were euthanized with CO2 followed cervical dislocation, their livers were existed and placed in a glass beaker containing ice-cold isolation buffer (IB: 0.25 m sucrose, 10 mm Tris-HCl, 0.1 mm EGTA-Tris, pH 7.4) supplemented with fatty acid free bovine serum albumin. Livers were then cut into small pieces with scissors, rinsed with ice-cold IB, and passed through a pre-chilled Potter homogenizer with Teflon pestle. The homogenate (˜30 mL per liver) was transferred to centrifuge tubes, and unbroken cells and nuclei were removed by centrifugation at 700 g for 10 min at 4° C. The supernatant containing mitochondria and other organelles was transferred to new tubes and centrifuged at 6000 g for 10 min at 4° C. The resulting supernatant was discarded and mitochondrial pellet was carefully suspended in ice-cold IB and spun at 9500 g for 5 min at 4° C. The pellet was suspended in IB to give a protein concentration of ˜60-80 mg/mL and stored on ice. Experiments were started immediately and completed within 5 h. Protein concentration was determined by the Biuret method.
Assessment of mitochondrial swelling. Changes in mitochondrial volume of isolated mouse liver mitochondria were followed in a 96-well clear assay plate at a final volume of 0.2 mL and 0.25 mg/mL mitochondrial protein. Absorbance was read for 30 min at 540 nm on a Tecan Infinite F200 plate reader. Activity of test compounds was addressed as follows: First, 0.1 mL of sucrose assay buffer (SAB: 0.250 m sucrose, 10 mm MOPS-Tris, 0.01 mm EGTA-Tris, 1.0 mm phosphoric acid-Tris, 10 mm glutamate and 5 mm malate, pH 7.4) supplemented with twice the CaCl2 concentration required to induce mitochondrial swelling (which was determined for each preparation of mitochondria, typically 50 μm) was dispensed to the assay plate. A set of wells also contained 2.0 mm EGTA (to prevent mitochondrial swelling). The test wells contained a range of concentrations (in 1:2 serial dilutions) of the compounds of interest or 2% DMSO. Experiments were started by the addition of 0.1 mL of mitochondrial suspension (0.5 mg/mL mitochondria in SAB without respiratory substrates) to the assay plates. EC50s±SE were determined with OriginPro software by applying Hill1 function fitting algorithm on average concentration response data of n=3-41 independent preparations.

[1] = system: col6a1 zebrafish morphants; assay: Survival of col6a1 zebrafish morphants; format: in vivo
Description: In FIG. 6D, the left panel represents data from embryos injected with a scrambled morpholino (scrd_MO, open squares), Exon 9 col6a1 morpholino (col6a1_MO, closed squares) and col6a1_MO embryos treated with TR001 at 0.1 μm (open circles), 1.0 μm (open triangles), 10 μm (open diamonds). Right panel represents data from embryos injected with a scrambled morpholino (scrd_MO, open squares), Exon 9 col6a1 morpholino (col6a1_MO, closed squares) and col6a1_MO embryos treated with 63 at […] (closed circles), 1.0 μm (closed triangles), 10 μm (closed diamonds). Embryos were treated with oligomycin, FCCP, rotenone (R) and antimycin A (A) as indicated. Results are presented as mean±SEM. Both graphs report data from 5 independent experiments with n=20 for each treatment. Error bars are reported as SEM. FIG. 6E, Survival of DMSO-treated zebrafish injected with the scrambled morpholino (open squares), DMSO-treated col6a1 morphants (closed squares) and col6a1 morphants treated with TR001 (0.1 μm, open triangles; 1.0 μm, open circles; 10 μm, open diamonds) or 63 (0.1 μm, closed triangles; 1.0 μm, closed circles; 10 μm, closed diamonds) were recorded for 30 days. Treatment started at 21 hpf and repeated at 4 dpf (arrows). Data report the percentage of surviving fish and are mean±SEM from 3 independent experiments (n=15 for each condition in each set).
Finally, fish survival was also assessed. Fifty percent of col6a1 morphant embryos treated with 0.1 μm of TR001 survived 7 days longer than col6a1 morphants treated with DMSO (p<0.0001 from 3 to 12 dpf), and 20% were still alive at 30 dpf (i.e., after 29 days of treatment) (FIG. 6E).
Morpholino antisense injection and treatment. Knock-down of col6a1 gene expression was obtained with a previously published morpholino ^[25] with sequence GAGAGCGGAAGACGAACCTTCATTC (SEQ ID NO: 2; GeneTools, Inc.). A control morpholino with no sequence homology in the zebrafish genome was used in parallel (CCTCTTACCTCAGTTACAATTTATA; SEQ ID NO: 3). Zebrafish eggs from wild-type matings were injected at the 1-2 cell stage with approximately 10 nL of 0.1 mm morpholino solution (corresponding to 4 ng of morpholino) using a WPI pneumatic PicoPump PV820 injector (World Precision Instruments, Inc.). Zebrafish embryos were dechorionated at 20 hours post fertilization (hpf) and treated at 21 hpf with increasing doses (0.1, 1 and 10 μm) of both TR001 and 63 compounds dissolved in fish water with 1% DMSO (vehicle).
Survival. Zebrafish survival was monitored every 3 days for 30 days. Drug treatment with both TR001 and 63 dissolved in fish water with 1% DMSO started at 21 hpf. After 3 days of treatment (4 days post fertilization, dpf), zebrafish were moved to a bigger tank (50 mL) with fresh compounds dissolved in 1% DMSO. As a control vehicle, fish water with 1% DMSO was used.

Structure (SMILES): Cc1ccc(Cl)cc1NC(=O)c1cn(-c2ccc(F)c(O)c2)nn1 [TR001, N-(5-chloro-2-methylphenyl)-1-(4-fluoro-3-hydroxyphenyl)-1H-1,2,3-triazole-4-carboxamide]
- EC50 (mtPTP): 29 ± 8 nM
- days longer survival of fifty percent of embryos than DMSO treated morphants ([1]; 0.1 μm): 7 days
- percent still alive at 30 dpf ([1]; 0.1 μm, after 29 days of treatment): 20%
- survival (in words) ([1]; 1 μm): effective at improving survival rate
- survival (in words) ([1]; 10 μm): ineffective
